From patent US20200054633A1 (priority 2017, published 2020) come the findings set out here.

The test system of data set [1] is acute uncomplicated seasonal influenza A. Kind of data set: Clinical study: time to resolution of the 7 primary influenza symptoms (Flu-iiQ). To be noted: for Median (95% CI): untitled table, presumably time to symptom resolution.
From the text: This study followed a randomized, double-blind, placebo-controlled, parallel-group, multicenter design.
Key secondary efficacy variable: Time to resolution of influenza symptoms after initiation of study drug. Resolution of influenza symptoms was defined as the first Flu iiQ™ recording of a successive series of 3 recordings (over 4 scheduled successive analysis time points, 1 missing time point is allowed) in which all symptom scores for each of the 3 assessments were at most mild for all 7 primary influenza symptoms (cough, sore throat, headache, nasal stuffiness, feverishness or chills, muscle or joint pain, and fatigue).
Data set [2] is described as follows: Clinical study: study drug discontinuation and reasons. Format: in vivo, human. An excerpt:
Given the sizable difference between the FAS and the Safety Set, summary tables are provided for both analysis sets. Table 4 and Table 5 present a summary of subjects who completed or discontinued study drug and/or the study for the FAS and the Safety Set, respectively.

The mark [3] stands for this setting: Cmpd (1) 300 mg + OST placebo, Full Analysis Set.
Where [4] appears, read: Cmpd (1) 300 mg + OST placebo, Safety Set.
Where [5] appears, read: Cmpd (1) 600 mg + OST placebo, Full Analysis Set.
Setting [6] is: Cmpd (1) 600 mg + OST placebo, Safety Set.

For the compound `O=C(O)[C@H]1C2CCC(CC2)[C@@H]1Nc1nc(-c2c[nH]c3ncc(F)cc23)ncc1F` [Compound (1), Pimodivir], the entries for the “Median (95% CI)” value in data set [1] (Cmpd (1) 300 mg) and in data set [1] (Cmpd (1) 600 mg) were 99.0 (71.5; and 85.7 (55.3;, respectively. The “increase in time to resolution of the 7 primary influenza symptoms versus placebo” value in data set [1] (Compound (1) 300 mg bid, accelerated failure time model) is reported as 7%. The “Drug termination: Discontinued” value is on record as 20.7% in data set [2] (setting [3]); “(20.7%)” in data set [2] (Cmpd (1) 300 mg + OST placebo, Full Analysis Set, listed as Cmpd (1)); 14 (18.9%) in data set [2] (setting [4]); 14.0% in data set [2] (setting [5]); “(14.0%)” in data set [2] (Cmpd (1) 600 mg + OST placebo, Full Analysis Set, listed as Cmpd (1)); 12 (16.2%) in data set [2] (setting [6]). The “Drug termination: Discontinued, Adverse event” value in data set [2] (setting [3]) is “(10.3%)”; in data set [2] (setting [4]), 7 (9.5%); in data set [2] (setting [5]), “(5.3%)”; in data set [2] (setting [6]), 3 (4.1%).
